Values quoted from earlier work as cited in US6348220B1, “Phenethylisothiocyanate nutraceutical compositions and methods” (Rutgers, the State University of New Jersey, priority 1999, dated 2002).

Test system: oxidation of nitrosamines from tobacco
Conditions: human smokers, PEITC from fresh watercress, urinary metabolites (Hecht et al., 1995)

Question: For S=C=NCCc1ccccc1 [PEITC, phenethyl isothiocyanate], which “effect on oxidation of nitrosamines from tobacco” value is on record?
Answer: specifically inhibit the oxidation of nitrosamines from tobacco
